Tests used:
windgrass [1] = assay: Test Example 5: herbicidal effect by foliage application, plastic box (Table 20, symbol L); type: in vivo, windgrass (Apera spica-venti); settings: foliage application, 283 g/ha, 3 weeks after application
Outline: (§1)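 Post-emergence foliar test in sterilized diluvial soil. Compound applied as water-diluted emulsion at a predetermined rate to 14-day-old plants; evaluation at three weeks.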

barnyard grass [2] = assay: Test Example 5: herbicidal effect by foliage application, plastic box (Table 20, symbol H); type: in vivo, barnyard grass (Echinochloa crus-galli); settings: foliage application, 283 g/ha, 3 weeks after application
Outline: as §1

barnyard grass [3] = assay: Test Example 3: herbicidal effect by foliage application, Wagner pot (Table 18, symbol H); type: in vivo, barnyard grass (Echinochloa crus-galli); settings: 283 g/ha
Outline: (§2)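 Plants were sown in alluvial soil held under 0.1–0.5 cm standing water and grown 14 days in a greenhouse at 25–30 °C. An emulsifiable formulation, water-diluted to the set dose, was then sprayed onto the foliage, and effects were scored three weeks later using previously defined criteria.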

persian speedwell [4] = assay: Test Example 5: herbicidal effect by foliage application, plastic box (Table 20, symbol R); type: in vivo, Persian speedwell (Veronica persica); settings: foliage application, 283 g/ha, 3 weeks after application
Outline: as §1

blackgrass [5] = assay: Test Example 5: herbicidal effect by foliage application, plastic box (Table 20, symbol J); type: in vivo, blackgrass (Alopecurus myosuroides); settings: foliage application, 283 g/ha, 3 weeks after application
Outline: as §1

redroot pigweed = assay: Test Example 4: herbicidal effect by soil treatment (Table 19, symbol N); type: in vivo, redroot pigweed (Amaranthus retroflexus); settings: 283 g/ha
Outline: (§3)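 Scoring uses the grading scale of an earlier test, three weeks post-application. Treatment consists of spraying a diluted emulsion formulation across the surface of sterilized diluvial soil in which seeds are buried near 1.5 cm deep; boxes are kept in a greenhouse between 25° C. and 30° C.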

Chinese sprangletop = assay: Test Example 3: herbicidal effect by foliage application, Wagner pot (Table 18, symbol D); type: in vivo, chinese sprangletop (Leptochloa chinensis); settings: 283 g/ha
Outline: as §2

southern crabgrass [6] = assay: Test Example 5: herbicidal effect by foliage application, plastic box (Table 20, symbol F); type: in vivo, southern crabgrass (Digitaria ciliaris); settings: foliage application, 283 g/ha, 3 weeks after application
Outline: as §1

lambsquarters [7] = assay: Test Example 5: herbicidal effect by foliage application, plastic box (Table 20, symbol O); type: in vivo, lambsquarters (Chenopodium album); settings: foliage application, 283 g/ha, 3 weeks after application
Outline: as §1

barnyard grass [8] = assay: Test Example 4: herbicidal effect by soil treatment (Table 19, symbol H); type: in vivo, barnyard grass (Echinochloa crus-galli); settings: 283 g/ha
Outline: as §3

wild oat [9] = assay: Test Example 5: herbicidal effect by foliage application, plastic box (Table 20, symbol I); type: in vivo, wild oat (Avena fatua); settings: foliage application, 283 g/ha, 3 weeks after application
Outline: as §1

Italian ryegrass [10] = assay: Test Example 4: herbicidal effect by soil treatment (Table 19, symbol K); type: in vivo, Italian ryegrass (Lolium multiflorum); settings: 283 g/ha
Outline: as §3

Italian ryegrass [11] = assay: Test Example 5: herbicidal effect by foliage application, plastic box (Table 20, symbol K); type: in vivo, Italian ryegrass (Lolium multiflorum); settings: foliage application, 283 g/ha, 3 weeks after application
Outline: as §1

velvetleaf [12] = assay: Test Example 4: herbicidal effect by soil treatment (Table 19, symbol M); type: in vivo, velvetleaf (Abutilon theophrasti); settings: 283 g/ha
Outline: as §3

persian speedwell [13] = assay: Test Example 4: herbicidal effect by soil treatment (Table 19, symbol R); type: in vivo, Persian speedwell (Veronica persica); settings: 283 g/ha
Outline: as §3

false cleavers [14] = assay: Test Example 5: herbicidal effect by foliage application, plastic box (Table 20, symbol Q); type: in vivo, false cleavers (Galium spurium); settings: foliage application, 283 g/ha, 3 weeks after application
Outline: as §1

green foxtail [15] = assay: Test Example 4: herbicidal effect by soil treatment (Table 19, symbol G); type: in vivo, green foxtail (Setaria viridis); settings: 283 g/ha
Outline: as §3

lambsquarters [16] = assay: Test Example 4: herbicidal effect by soil treatment (Table 19, symbol O); type: in vivo, lambsquarters (Chenopodium album); settings: 283 g/ha
Outline: as §3

velvetleaf [17] = assay: Test Example 5: herbicidal effect by foliage application, plastic box (Table 20, symbol M); type: in vivo, velvetleaf (Abutilon theophrasti); settings: foliage application, 283 g/ha, 3 weeks after application
Outline: as §1

windgrass [18] = assay: Test Example 4: herbicidal effect by soil treatment (Table 19, symbol L); type: in vivo, windgrass (Apera spica-venti); settings: 283 g/ha
Outline: as §3

green foxtail [19] = assay: Test Example 5: herbicidal effect by foliage application, plastic box (Table 20, symbol G); type: in vivo, green foxtail (Setaria viridis); settings: foliage application, 283 g/ha, 3 weeks after application
Outline: as §1

southern crabgrass [20] = assay: Test Example 4: herbicidal effect by soil treatment (Table 19, symbol F); type: in vivo, southern crabgrass (Digitaria ciliaris); settings: 283 g/ha
Outline: as §3

chickweed = assay: Test Example 4: herbicidal effect by soil treatment (Table 19, symbol P); type: in vivo, common chickweed (Stellaria media); settings: 283 g/ha
Outline: as §3

wild oat [21] = assay: Test Example 4: herbicidal effect by soil treatment (Table 19, symbol I); type: in vivo, wild oat (Avena fatua); settings: 283 g/ha
Outline: as §3

blackgrass [22] = assay: Test Example 4: herbicidal effect by soil treatment (Table 19, symbol J); type: in vivo, blackgrass (Alopecurus myosuroides); settings: 283 g/ha
Outline: as §3

false cleavers [23] = assay: Test Example 4: herbicidal effect by soil treatment (Table 19, symbol Q); type: in vivo, false cleavers (Galium spurium); settings: 283 g/ha
Outline: as §3

rice flat sedge = assay: Test Example 3: herbicidal effect by foliage application, Wagner pot (Table 18, symbol E); type: in vivo, rice flat sedge (Cyperus iria); settings: 283 g/ha
Outline: as §2

**Q.** Which results are given for `CCCC(=O)Oc1c(C)nn(C)c(=O)c1-c1c(-c2ccccc2OC)sc2ccc(F)cc12` [2-025]?
**A.** effect on windgrass (L) (windgrass [1]): 1 (Herbicidal rate of 5% or more and less than 20%); effect on barnyard grass (H) (barnyard grass [2]): 3 (Herbicidal rate of 40% or more and less than 70%); herbicidal effect on H (barnyard grass), rating 0-5 (barnyard grass [3]): 4 (Herbicidal rate of 70% or more and less than 90%); effect on persian speedwell (R) (persian speedwell [4]): 4 (Herbicidal rate of 70% or more and less than 90%); effect on blackgrass (J) (blackgrass [5]): 0 (Herbicidal rate of 5% or less (almost no effect)); herbicidal effect rating, N: redroot pigweed (redroot pigweed): 3 (Herbicidal rate of 40% or more and less than 70%); herbicidal effect on D (Chinese sprangletop), rating 0-5 (Chinese sprangletop): 0 (Herbicidal rate of 5% or less (almost no effect)); effect on southern crabgrass (F) (southern crabgrass [6]): 4 (Herbicidal rate of 70% or more and less than 90%); effect on lambsquarters (O) (lambsquarters [7]): 3 (Herbicidal rate of 40% or more and less than 70%); herbicidal effect rating, H: barnyard grass (barnyard grass [8]): 3 (Herbicidal rate of 40% or more and less than 70%); effect on wild oat (I) (wild oat [9]): 3 (Herbicidal rate of 40% or more and less than 70%); herbicidal effect rating, K: Italian ryegrass (Italian ryegrass [10]): 0 (Herbicidal rate of 5% or less (almost no effect)); effect on Italian ryegrass (K) (Italian ryegrass [11]): 1 (Herbicidal rate of 5% or more and less than 20%); herbicidal effect rating, M: velvetleaf (velvetleaf [12]): 2 (Herbicidal rate of 20% or more and less than 40%); herbicidal effect rating, R: persian speedwell (persian speedwell [13]): 3 (Herbicidal rate of 40% or more and less than 70%); effect on false cleavers (Q) (false cleavers [14]): 4 (Herbicidal rate of 70% or more and less than 90%); herbicidal effect rating, G: green foxtail (green foxtail [15]): 4 (Herbicidal rate of 70% or more and less than 90%); herbicidal effect rating, O: lambsquarters (lambsquarters [16]): 4 (Herbicidal rate of 70% or more and less than 90%); effect on velvetleaf (M) (velvetleaf [17]): 5 (Herbicidal rate of 90% or more (almost completely withered)); herbicidal effect rating, L: windgrass (windgrass [18]): 0 (Herbicidal rate of 5% or less (almost no effect)); effect on green foxtail (G) (green foxtail [19]): 4 (Herbicidal rate of 70% or more and less than 90%); herbicidal effect rating, F: southern crabgrass (southern crabgrass [20]): 3 (Herbicidal rate of 40% or more and less than 70%); herbicidal effect rating, P: chickweed (chickweed): 4 (Herbicidal rate of 70% or more and less than 90%); herbicidal effect rating, I: wild oat (wild oat [21]): 3 (Herbicidal rate of 40% or more and less than 70%); herbicidal effect rating, J: blackgrass (blackgrass [22]): 0 (Herbicidal rate of 5% or less (almost no effect)); herbicidal effect rating, Q: false cleavers (false cleavers [23]): 4 (Herbicidal rate of 70% or more and less than 90%); herbicidal effect on E (rice flat sedge), rating 0-5 (rice flat sedge): 4 (Herbicidal rate of 70% or more and less than 90%)

— patent US20230085307A1, “PYRIDAZINONE COMPOUND AND HERBICIDE” (NISSAN CHEMICAL CORPORATION, priority 2019, published 2023)
